Experimental data from article PMC12113347, “Compound 3d Attenuates Metabolic Dysfunction-Associated Steatohepatitis via Peroxisome Proliferator-Activated Receptor Pathway Activation and Inhibition of Inflammatory and Apoptotic Signaling” (Metabolites, 2025).
Where two headings read alike, the source gives them in different places.

Legend:
PPAR-related proteins = test: Western blotting of PPAR-related proteins in FFA-stimulated L02 cells; format: cell-based, human; conditions: Figure 6A
Method: (§1) Proteins were extracted using RIPA lysate and a BCA kit for protein concentration, separated by SDS-PAGE gel electrophoresis, and transferred to PVDF membranes. The membranes were sealed with 5% skimmed milk and incubated at 4 °C overnight with primary antibodies, followed by co-incubation with the corresponding secondary antibodies. The protein bands were imaged using an infrared laser imager and quantitatively analyzed by ImageJ software. The antibodies used for Western blot were Acox1 (Abcam, ab184032), Acaa1 (Abcam, ab154091), EHHADH (Abcam, ab123490), PPARγ (Abcam, ab272718), PPARα (Abcam, ab314112), PPARδ (Abcam, ab178866), P38 (Abcam, ab31828), p-P38 (Abcam, ab195049), Bcl-2 (Abcam, ab182858), Caspase8 (Abcam, ab25901), anti-rabbit IgG (CST, 7074 S), and α-tubulin (Abcam, ab7291).

RAW264.7 cells = test: LPS-induced RAW264.7 cell inflammation model (TNF-α, NO, IL-6 in supernatant); format: cell-based
Method: RAW264.7 cells were bought from Guangzhou Huatuo Biological Technology Co., Ltd. (Guangzhou, China). RAW264.7 cells (1 × 10^5 cells/mL) were inoculated in 24-well plates. After 24 h, LPS (1 μg/mL) was added to induce cell inflammation. Subsequently, curcumin (100 μM), fenofibric acid (FA, 100 μM), or 3d (10, 20, 40 80 μM) was added for 24 h. The cell supernatant was collected for analysis of inflammatory factors, including nitric oxide (NO), interleukin-6 (IL-6), and tumor necrosis factor (TNF-α).

L02 cells [1] = test: Effect of 3d on L02 cell proliferation/survival (Figure 1C); format: cell-based, human; conditions: 3d alone
[2] = Pharmacokinetics of 3d in male SD rats, tail vein injection; format: in vivo; conditions: 30 mg/kg; for half-life: SD, iv
Method: The pharmacokinetics of 3d in vivo were evaluated using male SD rats. Following a 12 h fast, the rats were administered 3d (30 mg/kg) via gavage or tail vein injection, respectively, and blood samples were collected within 24 h for analysis of 3d blood concentration via HPLC. The PK parameters were calculated using the DAS 3.0, and oral bioavailability (F) was obtained by the following formula.F = AUCpo × Di.v/AUCi.v × Dpo × 100%(1)

[3] = In vitro stability in DMEM medium, simulated gastric fluid and simulated intestinal fluid (HPLC); format: in vitro ADME; conditions: 40 μM, 37 °C
Method: Elafibranor and 3d (40 μM) were dissolved in DMEM medium, as well as in simulated gastric fluid (SGF) and simulated intestinal fluid (SIF), respectively, at 37 °C. The concentration of the compounds was determined within 24 h by HPLC. The HPLC conditions comprised an ACQUITY UPLC BEH C18 column maintained at 40 °C with a mobile phase consisting of 20% ultrapure water and 80% acetonitrile, with a flow rate of 1 mL/min at 360 nm.

L02 cells [4] = test: FFA-induced lipid accumulation model in L02 cells (TG and ALT kits, Oil Red O); format: cell-based, human; conditions: 0.9 mM FFA
Method: Free fatty acids (FFAs, OA:PA = 2:1) were used to induce the lipid model in L02 cells (Guangzhou Huatuo Biological Technology Co., Ltd., Guangzhou, China). The L02 cells (1 × 10^5 cells/mL) were inoculated in 12-well plates. After 24 h, the cells were starved for 12 h and then treated with DMSO or FFAs for 24 h. Subsequently, the cells were exposed to fenofibric acid (100 μM) or 3d (10, 20, 40 μM) for another 24 h.
The cells were collected and lysed using cell lysis solution; the supernatants were subjected to triglycerides (TGs) and alanine aminotransferase (ALT) kit assays. Moreover, following the completion of the treatment, the cells were fixed with 4% paraformaldehyde and stained with an Oil Red O, with the objective of observing the morphology under an inverted microscope.

[5] = system: PPAR signaling pathway and p38 MAPK pathway proteins; test: Proteomics and Western blotting of liver tissue of HFD mice (PPAR pathway, p38 MAPK and apoptosis proteins); format: in vivo
Method: Proteome sequencing of liver tissue samples was performed according to the specific requirements of the protocol by Beijing Qinglian Baiao Biotechnology Co., Ltd. (Beijing, China). Mouse fecal samples were collected and frozen in liquid nitrogen and stored at −80 °C.
as §1

[6] = LPSs-induced, RAW264.7 macrophages, p < 0.01
[7] = male, rat, blood, SD rats, intravenous
[8] = HFD mice liver, Western blot, Figure 7A

SMILES: CNc1ccc(C(=O)/C=C/c2cc(C)c(OC(C)(C)C(=O)OC(C)(C)C)c(C)c2)cc1 [3d]
- PPAR-related proteins in L02 cells (PPAR-related proteins): significantly increased
- levels of each inflammatory factor (TNF-α, NO, IL-6) (RAW264.7 cells; LPS 1 μg/mL, 3d 10, 20, 40, 80 μM, 24 h): significantly reduced
- IL-6 reduction (RAW264.7 cells; [6]): 48%
- NO decrease (RAW264.7 cells; [6]): 51%
- TNF-α reduction (RAW264.7 cells; [6]): 63%
- cell survival of L02 cells (L02 cells [1]): significantly increased cell survival
- AUC(0-t) ([2]; SD rats, intravenous): 108,480 ng/L*min
- AUC(0-∞) ([2]; SD rats, intravenous): 136,923 ng/L*min
- AUMC(0-t) ([2]; SD rats, intravenous): 11,816,712
- AUMC(0-∞) ([2]; SD rats, intravenous): 29,781,860
- Cz ([2]; SD rats, intravenous): 107 ng/L
- VRT(0-t) ([2]; SD rats, intravenous): 10,194 min^2
- VRT(0-∞) ([2]; SD rats, intravenous): 66,630 min^2
- Zeta ([2]; SD rats, intravenous): 0.004 min⁻¹
- half-life ([2]; male, rat, blood, SD rats, intravenous, read-out: T1/2): 3.03 h
- half-life ([2]; male, rat, blood, rats, intravenous administration, read-out: half-life (converted)): 3 h
- Cmax [2, 7]: 1.09 ng/mL
- Tmax [2, 7]: 5 min
- MRT last ([2]; male, rat, blood, SD rats, intravenous, read-out: MRT(0-t) (converted)): 1.8 h
- MRT inf ([2]; male, rat, blood, SD rats, intravenous, read-out: MRT(0-∞) (converted)): 3.62 h
- AUC intravenous relative to oral administration ([2]; rats): four times greater
- concentration in culture medium (stability) ([3]; DMEM, within 24 h): remained relatively constant
- concentration in gastric fluid (stability) ([3]; SGF): decreased significantly after 60 min
- concentration in intestinal fluid (stability) ([3]; SIF, within 24 h): remained relatively constant
- intracellular lipid accumulation (Oil Red O morphology) (L02 cells [4]): diminished intracellular lipid accumulation
- ALT activity (L02 cells [4]; 3d 10, 20, 40 μM, 24 h): notable reduction
- intracellular TG levels (L02 cells [4]; 3d 10, 20, 40 μM, 24 h): notable reduction
- activation of caspase 8 [5, 8]: reversed the activation
- expression of the anti-apoptotic protein Bcl-2 [5, 8]: significantly up-regulated
- degree of P38 phosphorylation ([5]; HFD mice liver, Western blot, Figure 7B): significantly reduced
- upregulation of Acox1, EHHADH, Acaa1 ([5]; HFD mice liver, p < 0.001): 2.3–3.1 fold
- decrease in caspase-8 ([5]; HFD mice liver, p < 0.01): 61%
- increase in Bcl-2 ([5]; HFD mice liver, p < 0.01): 1.8 fold
- reduction in p-p38 ([5]; HFD mice liver, p < 0.01): 54%
- PPAR-related proteins (PPAR α, γ, δ, Acox1, EHHADH, Acaa1) in liver tissues ([5]; HFD mice, Western blot, Figure 6B): decreasing trend of PPAR-related proteins was significantly reversed
